Data set [1] can be described thus: Absorption/fluorescence spectrum measurement. The data set is classed as physicochemical. The method, then:
The absorption spectrum was measured using UV-2450 (SIMADZU), and the fluorescence spectrum was measured using F-7000 (HITACHI).
FIG. 9 and FIG. 10 illustrate the results of the absorption/fluorescence spectrum measurement of 2Me5GluAF-TG (Compound 32). […] The absorption spectrum was measured using UV-2450 (SIMADZU), and the fluorescence spectrum was measured using F-7000 (HITACHI).

Data set [2] has as its target T1, PSMA (Homo sapiens, UniProt Q04609). Kind of data set: Reactivity with PSMA purified enzyme (Example 6). The data set is classed as biochemical.
Data set [3] has as its system LNCaP cell lysate (PSMA expressing prostate cancer cell). Kind of data set: Cell lysate assay, LNCaP. The data set is classed as biochemical. The settings on record: probe 10 μM, 37° C. As to the method:
(§1) A PSMA specific inhibitor 2-PMPA (10 μM) was added to one of LNCaP cell lysate samples at the same time, and measurement was performed. • (2) The obtained fluorescence intensity of each lysate was normalized based on 0 minutes being set to 1, and then plot was performed with the incubation time on the horizontal axis.
(§2) A solution (20 μM, 100 μL) of 2Me5GluAF-TG (Compound 32) and a cell lysate (0.36 mg/mL, 100 μL) were reacted in TBS-T buffer at 37° C., and the fluorescence intensity was measured every 30 minutes. The measurement procedure is as described in Example 3.
(§3) Ex/em: 485/535 nm, n=3, probe final concentration: 10 μM, inhibitor (2-PMPA) concentration: 10 μM

Data set [4] relates to PC3 cell lysate (PSMA non-expressing prostate cancer cell). Kind of data set: Cell lysate assay, PC3. It is filed as biochemical. The conditions noted are these: probe 10 μM, 37° C. As to the method: as §1, §2, §3
For data set [5], the system named is LNCaP cells (high PSMA expression). Kind of data set: Live cell imaging, LNCaP cells (confocal microscope). It is filed as cell-based. As to the method: (§4) A solution (final concentration: 10 μM) of 2Me5GluAF-TG (Compound 32) diluted with HBSS(+) was added to LNCaP cells (high PSMA expression) or PC3 cells (PSMA non-expression), and a fluorescence image was taken by a confocal microscope every 1 hour under the following conditions while culturing at 37° C. and 5% CO2.
A probe (2Me5GluAF-TG) and an inhibitor were added, and after culturing at 37° C. and 5% CO2 for 15 hours, a fluorescence image was taken with a confocal microscope. Probe concentration: 10 μM, inhibitor (2-PMPA) concentration: 10 μM, Ex/em: 490/500-600 nm, Scale bar: 50 μm.
Ten intracellular regions and ten extracellular regions were each surrounded by ROI, and an average value of the fluorescence intensity was calculated. FIG. 18a illustrates the taken fluorescence image, and FIG. 18b illustrates the average value of the fluorescence intensity with and without addition of the inhibitor.

The subject of data set [6] is PC3 cells (PSMA non-expression). The experiment in a line: Live cell imaging, PC3 cells (confocal microscope). The settings on record: probe 10 μM in HBSS(+), image every 1 hour. The data set is classed as cell-based. The method, then: as §4
The target of data set [7] is T1, PSMA. The experiment in a line: LC-UV/MS analysis of PSMA reaction solution. The data set is classed as biochemical. The settings on record: 10 hours. As to the method:
A solution, prepared after recombinant human PSMA and 2Me5GluAF-TG (Compound 32) were reacted for 10 hours, and 2Me5GluAF-TG and 2MeTG synthesized as preparations were subjected to LC-UV/MS analysis.
Probe concentration: 10 μM (2Me5GluAF-TG, enzyme reaction solution), 2 μM (2MeTG). The results are illustrated in FIG. 13 and FIG. 14.

The next data set concerns LNCaP cells. The experiment in a line: LC-UV/MS analysis of extracellular fluid after LNCaP imaging. The data set is classed as cell-based. The method, then: After imaging of LNCaP cells using 2Me5GluAF-TG, a collected extracellular fluid, and 2Me5GluAF-TG and 2MeTG synthesized as preparations were subjected to the LC-MS analysis under the following conditions.
Probe concentration: 10 μM (2Me5GluAF-TG, extracellular fluid), 2 μM (2MeTG).

Data set [8] relates to human prostate cancer surgical specimen. Kind of data set: Study using human prostate cancer surgical specimen. The settings on record: 2.50 μM probe solution in 1×TBS, 40° C., up to 4 hours. As to the method: • 1. Wash surgical specimen with 1×TBS buffer • 2. Add dropwise 2.50 μM of 2Me5GluAF-TG solution (diluted with 1×TBS buffer) so that the whole specimen is immersed. • 3. While heating to 40° C. with a heater, take a fluorescence image by Maestro for up to 4 hours • 4. Judge from the fluorescence image taken 4 hours after immersion, select and cut out several sites showing bright fluorescence and several sites showing no fluorescence, and fix with a 10% formalin solution • 5. Request a pathologist to perform HE staining/PSMA immunostaining on each site and evaluate a rate of cancer sites and PSMA expression
The results of using four types of specimens are illustrated in FIG. 21 to FIG. 24. FIG. 25 illustrates a result obtained by changing the above protocol (changing a method so that a surface is covered with gauze soaked in a probe solution, temporarily removing the gauze, and taking a fluorescence image). • (a) of each figure illustrates a photograph before immersion of the surgical specimen in a Me5GluAF-TG solution and a photograph taken 4 hours after the immersion (the right side is a fluorescence image). The graph on the left side of (b) illustrates a change in fluorescence intensity at a selected site of the surgical specimen from the immersion in the Me5GluAF-TG solution to 4 hours after the immersion. […]

T1 sequence (Q04609 whole entry): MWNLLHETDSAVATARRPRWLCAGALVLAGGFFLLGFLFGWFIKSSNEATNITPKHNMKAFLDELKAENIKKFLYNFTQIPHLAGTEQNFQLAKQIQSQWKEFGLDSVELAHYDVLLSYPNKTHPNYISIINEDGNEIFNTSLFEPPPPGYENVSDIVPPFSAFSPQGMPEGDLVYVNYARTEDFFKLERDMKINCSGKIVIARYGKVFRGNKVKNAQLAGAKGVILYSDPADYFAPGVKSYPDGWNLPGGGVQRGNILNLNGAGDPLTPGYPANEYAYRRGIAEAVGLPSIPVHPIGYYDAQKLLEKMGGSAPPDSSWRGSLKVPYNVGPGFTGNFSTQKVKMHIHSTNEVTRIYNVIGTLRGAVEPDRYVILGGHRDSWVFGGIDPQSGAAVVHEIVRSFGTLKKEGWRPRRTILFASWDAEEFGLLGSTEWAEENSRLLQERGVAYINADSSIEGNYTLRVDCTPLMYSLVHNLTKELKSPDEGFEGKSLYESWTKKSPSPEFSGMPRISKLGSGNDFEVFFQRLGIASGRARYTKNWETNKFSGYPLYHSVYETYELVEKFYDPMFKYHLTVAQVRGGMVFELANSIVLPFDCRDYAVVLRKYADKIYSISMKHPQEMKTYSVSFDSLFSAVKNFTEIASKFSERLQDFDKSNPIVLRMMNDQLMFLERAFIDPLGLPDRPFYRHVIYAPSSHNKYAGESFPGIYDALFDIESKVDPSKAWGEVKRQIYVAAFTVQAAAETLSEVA

On to `Cc1ccc(/N=N/C(=O)N[C@@H](CCC(=O)O)C(=O)O)cc1-c1c2ccc(=O)cc-2oc2cc(O)ccc12` [Compound 2Me5GluAF-TG], for which, in data set [1] (0.2M phosphate buffer (pH 7.4)), the Φfl is listed as 0.002. In data set [1] (Table 3), the “λabs (nm)” value amounted to 495 nm and the “λem (nm)” value was determined as 516 nm. In addition, the “Fluorescence under physiological conditions” value in data set [1] (as compared to fluorescein) is reported as “almost no fluorescencence”. The “Increase in fluorescence with PSMA” value on PSMA [2] (10 μM probe, 0.44 μg PSMA, 1×TBS, 37° C.) is “the increase in fluorescence due to the enzymatic reaction was observed”. The “Increase in fluorescence with PSMA in presence of inhibitor” value at PSMA [2] (inhibitor 2-PMPA 10 μM) is “No increase in fluorescence was observed”. In addition, the “Increase in fluorescence in LNCaP cell lysate with inhibitor” value in [3] (2-PMPA 10 μM) is “almost no increase in fluorescence was observed”. For the same compound, the “Increase in fluorescence in LNCaP cell lysate” value in data set [3] is “a significant increase in fluorescence was observed”. For the same compound, the “Increase in fluorescence in PC3 cell lysate” value in [4] is on record as “almost no increase in fluorescence was observed”. The “Fluorescence image intensity in LNCaP cells” value in [5] (probe 10 μM in HBSS(+), image every 1 hour) is recorded as “the fluorescence intensity of the fluorescence image increased with the passage of time”. In addition, in data set [5] (probe 10 μM, 2-PMPA 10 μM, 15 hours), the “Fluorescence image intensity with inhibitor” value is recorded as “the intensity of the fluorescence image does not increase”. In addition, the “Average fluorescence intensity inside versus outside the cell” value in [5] (probe 10 μM, no inhibitor, 15 hours) was “the average value of the fluorescence intensity inside the cell is much higher than that outside the cell”. The “Fluorescence image in PC3 cells” value in data set [6] was “no change was observed in the fluorescence image”. The “Stability of the probe (LC-UV/MS)” value on PSMA [7] (inhibitor (2-PMPA) added or absence of PSMA) was “stable”. Moreover, the “Products of the reaction with PSMA (LC-UV/MS)” value on PSMA [7] (probe 10 μM, in the presence of PSMA) is 2MeTG and 2Me5OH-TG exhibiting fluorescence in the presence of PSMA were produced. In the data set on LNCaP cells (absence of the inhibitor (2-PMPA)), the “Product in extracellular fluid (LC-MS)” value is “production of fluorescent 2MeTG was confirmed”. In the data set on LNCaP cells (inhibitor added), the “Stability of the probe in extracellular fluid (LC-MS)” value was “stable”. Moreover, the “Relation of fluorescence increase to cancer site / PSMA expression” value in data set [8] is “a rough correlation between the increase in fluorescence intensity and the presence or absence of the cancer site or a PSMA expression level”.

These data come from patent publication US12055546B2, “Fluorescent probe for detecting carboxypeptidase activity” (THE UNIVERSITY OF TOKYO, priority 2018, dated 2024).
